Assay results reported in patent US11130778B2, “CD73 inhibitors” (ORIC Pharmaceuticals, Inc., priority 2019, dated 2021).

Biological target: T1, CD73 (Homo sapiens, UniProt P21589)
T1 sequence (P21589 27-549): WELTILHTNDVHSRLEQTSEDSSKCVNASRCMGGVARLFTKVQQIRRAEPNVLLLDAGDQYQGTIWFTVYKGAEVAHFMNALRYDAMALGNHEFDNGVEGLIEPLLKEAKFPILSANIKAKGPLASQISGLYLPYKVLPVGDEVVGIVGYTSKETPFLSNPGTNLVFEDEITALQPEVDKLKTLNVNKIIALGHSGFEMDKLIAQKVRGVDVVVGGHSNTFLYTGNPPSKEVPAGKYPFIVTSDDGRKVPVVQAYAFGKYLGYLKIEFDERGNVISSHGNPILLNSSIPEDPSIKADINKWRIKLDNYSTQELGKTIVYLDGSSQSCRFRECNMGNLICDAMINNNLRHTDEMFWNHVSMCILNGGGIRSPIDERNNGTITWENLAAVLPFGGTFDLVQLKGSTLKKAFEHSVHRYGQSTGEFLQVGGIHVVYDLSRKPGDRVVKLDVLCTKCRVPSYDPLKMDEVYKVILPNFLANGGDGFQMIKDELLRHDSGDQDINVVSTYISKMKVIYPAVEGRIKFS
Experiment: Biochemical assay of CD73 inhibition (Malachite Green)
Conditions: CD73 0.3208 nM, AMP 15 μM, Tris-HCl pH 7.4, Malachite Green absorbance readout; read-out: CD73_Biochem
Experimental: Example A1: Biochemical Assay
Assay Reaction Conditions
• Assay Volume: 70 μl • Reaction Volume: 50 μl • CD73: 0.3208 nM • AMP:15 μM • Assay Buffer: 2 5 mM Tris-HCL, pH 7.4, 0.01% Brij-35, 0.01% BSA, 5 mM MgCl2 Assay Procedure:
Made dose titration of testing compounds in assay buffer, 10 points 1/2 log titrations in duplicates starting at 100 μM.
Added 25 µl of CD73 to each well for a final concentration of […].
Incubated at RT for 15 min.
Added 25 µl of AMP to each well for a final concentration of 15 μM.
Incubated at RT for 10 min.
Added […] of Malachite Green Reagent A, incubate at RT for 10 min.
Added […] of Malachite Green Reagent B, incubate at RT for 45 min.
Read the Absorbance on Envision plate reader using excitation filter: Cy5 […].
The ability of the compounds disclosed herein to inhibit CD73 activity was quantified and the respective IC50 values were determined. Table 2 provides the biochemical IC50 values of compounds disclosed herein.

IC50 | SMILES
≤ 10 nM | O=P(O)(O)C(CO)(CCc1nnn[nH]1)OC[C@H]1O[C@@H](n2ncc3c(NC4CCCC4)nc(Cl)nc32)[C@H](O)[C@@H]1O (stereo partly drawn) [Example 18, (2-(((2R,3S,4R,5R)-5-(6-chloro-4-(cyclopentylamino)-1H-pyrazolo[3,4-d]pyrirnidin-1-yl)-3,4-dihydroxytetrahydrofuran-2-yl)methoxy)-1-hydroxy-4-(1H-tetrazol-5-yl)butan-2-yl)phosphonic acid]
≤ 10 nM | O=P(O)(O)[C@](CO)(Cc1nn[nH]n1)OC[C@H]1O[C@@H](n2ncc3c(NCC4CCC4)nc(Cl)nc32)[C@H](O)[C@@H]1O [Example 19, ((S)-2-(((2R,3S,4R,5R)-5-(6-chloro-4-((cyclobutylmethyl)amino)-1H-pyrazolo[3,4-d]pyrimidin-1-yl)-3,4-dihydroxytetrahydrofuran-2-yl)methoxy)-1-hydroxy-3-(2H-tetrazol-5-yl)propan-2-yl)phosphonic acid]
10 to 100 nM | O=P(O)(O)[C@@](CO)(Cc1nn[nH]n1)OC[C@H]1O[C@@H](n2ncc3c(NCC4CCC4)nc(Cl)nc32)[C@H](O)[C@@H]1O [Example 20, ((R)-2-(((2R,3S,4R,5R)-5-(6-chloro-4-((cyclobutylmethyl)amino)-1H-pyrazolo[3,4-d]pyrimidin-1-yl)-3,4-dihydroxytetrahydrofuran-2-yl)methoxy)-1-hydroxy-3-(2H-tetrazol-5-yl)propan-2-yl)phosphonic acid]
≤ 10 nM | O=P(O)(O)[C@](CO)(COCc1nn[nH]n1)OC[C@H]1O[C@@H](n2ncc3c(NCC4CC4)nc(Cl)nc32)[C@H](O)[C@@H]1O [Example 21, ((R)-1-((2H-tetrazol-5-yl)methoxy)-2-(((2R,3S,4R,5R)-5-(6-chloro-4-((cyclopropylmethyl)amino)-1H-pyrazolo[3,4-d]pyrimidin-1-yl)-3,4-dihydroxytetrahydrofuran-2-yl)methoxy)-3-hydroxypropan-2-yl)phosphonic acid]
≤ 10 nM | COCC(CC(=O)NS(=O)(=O)N(C)C)(OC[C@H]1O[C@@H](n2ncc3c(NC4CCCC4)nc(Cl)nc32)[C@H](O)[C@@H]1O)P(=O)(O)O (stereo partly drawn) [Example 22, (2-(((2R,3S,4R,5R)-5-(6-chloro-4-(cyclopentylamino)-1H-pyrazolo[3,4-d]pyrimidin-1-yl)-3,4-dihydroxytetrahydrofuran-2-yl)methoxy)-4-((N,N-dimethylsulfamoyl)amino)-1-methoxy-4-oxobutan-2-yl)phosphonic acid]
≤ 10 nM | COCC(Cc1nn[nH]n1)(OC[C@H]1O[C@@H](n2ncc3c(NC(C)C)nc(Cl)nc32)[C@H](O)[C@@H]1O)P(=O)(O)O (stereo partly drawn) [Example 23, (2-(((2R,3S,4R,5R)-5-(6-chloro-4-(isopropylamino)-1H-pyrazolo[3,4-d]pyrimidin-1-yl)-3,4-dihydroxytetrahydrofuran-2-yl)methoxy)-1-methoxy-3-(2H-tetrazol-5-yl)propan-2-yl)phosphonic acid]
≤ 10 nM | O=P(O)(O)[C@](CO)(COCc1nn[nH]n1)OC[C@H]1O[C@@H](n2ncc3c(NC4CCCC4)nc(Cl)nc32)[C@H](O)[C@@H]1O [Example 24, ((R)-1-((2H-tetrazol-5-yl)methoxy)-2-(((2R,3S,4R,5R)-5-(6-chloro-4-(cyclopentylamino)-1H-pyrazolo[3,4-d]pyrimidin-1-yl)-3,4-dihydroxytetrahydrofuran-2-yl)methoxy)-3-hydroxypropan-2-yl)phosphonic acid]
≤ 10 nM | O=P(O)(O)[C@@](CO)(COCc1nn[nH]n1)OC[C@H]1O[C@@H](n2ncc3c(NC4CCCC4)nc(Cl)nc32)[C@H](O)[C@@H]1O [Example 25, ((S)-1-((2H-tetrazol-5-yl)methoxy)-2-(((2R,3S,4R,5R)-5-(6-chloro-4-(cyclopentylamino)-1H-pyrazolo[3,4-d]pyrimidin-1-yl)-3,4-dihydroxytetrahydrofuran-2-yl)methoxy)-3-hydroxypropan-2-yl)phosphonic acid]
≤ 10 nM | O=c1[nH]c(C[C@@](CO)(OC[C@H]2O[C@@H](n3ncc4c(NC5CCCC5)nc(Cl)nc43)[C@H](O)[C@@H]2O)P(=O)(O)O)no1 [Example 26, ((R)-2-(((2R,3S,4R,5R)-5-(6-chloro-4-(cyclopentylamino)-1H-pyrazolo[3,4-d]pyrimidin-1-yl)-3,4-dihydroxytetrahydrofuran-2-yl)methoxy)-1-hydroxy-3-(5-oxo-4,5-dihydro-1,2,4-oxadiazol-3-yl)propan-2-yl)phosphonic acid]
≤ 10 nM | O=c1[nH]c(C[C@](CO)(OC[C@H]2O[C@@H](n3ncc4c(NC5CCCC5)nc(Cl)nc43)[C@H](O)[C@@H]2O)P(=O)(O)O)no1 [Example 27, ((S)-2-(((2R,3S,4R,5R)-5-(6-chloro-4-(cyclopentylamino)-1H-pyrazolo[3,4-d]pyrimidin-1-yl)-3,4-dihydroxytetrahydrofuran-2-yl)methoxy)-1-hydroxy-3-(5-oxo-4,5-dihydro-1,2,4-oxadiazol-3-yl)propan-2-yl)phosphonic acid]
10 to 100 nM | CC(C)Nc1nc(Cl)nc2c1cnn2[C@@H]1O[C@H](CO[C@@](CO)(Cc2nn[nH]n2)P(=O)(O)O)[C@@H](O)[C@H]1O [Example 28, ((S)-2-(((2R,3S,4R,5R)-5-(6-chloro-4-(isopropylamino)-1H-pyrazolo[3,4-d]pyrimidin-1-yl)-3,4-dihydroxytetrahydrofuran-2-yl)methoxy)-1-hydroxy-3-(2H-tetrazol-5-yl)propan-2-yl)phosphonic acid]
≤ 10 nM | CC(C)Nc1nc(Cl)nc2c1cnn2[C@@H]1O[C@H](CO[C@](CO)(Cc2nn[nH]n2)P(=O)(O)O)[C@@H](O)[C@H]1O [Example 29, ((R)-2-(((2R,3S,4R,5R)-5-(6-chloro-4-(isopropylamino)-1H-pyrazolo[3,4-d]pyrimidin-1-yl)-3,4-dihydroxytetrahydrofuran-2-yl)methoxy)-1-hydroxy-3-(2H-tetrazol-5-yl)propan-2-yl)phosphonic acid]
10 to 100 nM | COC[C@@](Cc1nn[nH]n1)(OC[C@H]1O[C@@H](n2ncc3c(NC(C)C)nc(Cl)nc32)[C@H](O)[C@@H]1O)P(=O)(O)O [Example 30, ((S)-2-(((2R,3S,4R,5R)-5-(6-chloro-4-(isopropylamino)-1H-pyrazolo[3,4-d]pyrimidin-1-yl)-3,4-dihydroxytetrahydrofuran-2-yl)methoxy)-1-methoxy-3-(2H-tetrazol-5-yl)propan-2-yl)phosphonic acid]
≤ 10 nM | COC[C@](Cc1nn[nH]n1)(OC[C@H]1O[C@@H](n2ncc3c(NC(C)C)nc(Cl)nc32)[C@H](O)[C@@H]1O)P(=O)(O)O [Example 31, ((R)-2-(((2R,3S,4R,5R)-5-(6-chloro-4-(isopropylamino)-1H-pyrazolo[3,4-d]pyrimidin-1-yl)-3,4-dihydroxytetrahydrofuran-2-yl)methoxy)-1-methoxy-3-(2H-tetrazol-5-yl)propan-2-yl)phosphonic acid]
10 to 100 nM | CC(C)CNc1nc(Cl)nc2c1cnn2[C@@H]1O[C@H](CO[C@@](CO)(Cc2nn[nH]n2)P(=O)(O)O)[C@@H](O)[C@H]1O [Example 32, ((S)-2-(((2R,3S,4R,5R)-5-(6-chloro-4-(isobutylamino)-1H-pyrazolo[3,4-d]pyrimidin-1-yl)-3,4-dihydroxytetrahydrofuran-2-yl)methoxy)-1-hydroxy-3-(2H-tetrazol-5-yl)propan-2-yl)phosphonic acid]
≤ 10 nM | CC(C)CNc1nc(Cl)nc2c1cnn2[C@@H]1O[C@H](CO[C@](CO)(Cc2nn[nH]n2)P(=O)(O)O)[C@@H](O)[C@H]1O [Example 33, ((R)-2-(((2R,3S,4R,5R)-5-(6-chloro-4-(isobutylamino)-1H-pyrazolo[3,4-d]pyrimidin-1-yl)-3,4-dihydroxytetrahydrofuran-2-yl)methoxy)-1-hydroxy-3-(2H-tetrazol-5-yl)propan-2-yl)phosphonic acid]
10 to 100 nM | COC[C@@](Cc1nn[nH]n1)(OC[C@H]1O[C@@H](n2ncc3c(NCC(C)C)nc(Cl)nc32)[C@H](O)[C@@H]1O)P(=O)(O)O [Example 34, ((S)-2-(((2R,3S,4R,5R)-5-(6-chloro-4-(isobutylamino)-1H-pyrazolo[3,4-d]pyrimidin-1-yl)-3,4-dihydroxytetrahydrofuran-2-yl)methoxy)-1-methoxy-3-(2H-tetrazol-5-yl)propan-2-yl)phosphonic acid]
≤ 10 nM | COC[C@](Cc1nn[nH]n1)(OC[C@H]1O[C@@H](n2ncc3c(NCC(C)C)nc(Cl)nc32)[C@H](O)[C@@H]1O)P(=O)(O)O [Example 35, ((R)-2-(((2R,3S,4R,5R)-5-(6-chloro-4-(isobutylamino)-1H-pyrazolo[3,4-d]pyrimidin-1-yl)-3,4-dihydroxytetrahydrofuran-2-yl)methoxy)-1-methoxy-3-(2H-tetrazol-5-yl)propan-2-yl)phosphonic acid]
